Experimental data from patent publication US10828275B2, “Selective targeting of procoagulant platelets” (NewSouth Innovations Pty Limited, priority 2014, dated 2020).
Entries after “also recorded” stand apart in the source; their conditions may differ.

Key:
[1] = tested on: platelets of coronary artery disease patients; experiment: Whole blood platelet necrosis assay in coronary artery disease patients; format: in vivo, human; details: thrombin or thrombin/collagen stimulation
From the text: The whole blood platelet necrosis assay was validated by measuring formation of procoagulant platelets in response to well-known agonist in humans and mice. The assay was able to reproducibly measure platelet propensity to necrosis in healthy human volunteers as well as in patients with ischaemic heart disease within a clinical setting.
Experiments using genetically modified mice indicate that formation of procoagulant platelets is dependent on the cyclophilin D necrosis pathway, but independent of the BclXL apoptosis pathway. In healthy volunteers, the strong platelet agonists, thrombin and collagen, induce formation of procoagulant platelets via a mechanism that is largely independent of protease activated receptors. Patients with coronary artery disease have a heightened procoagulant platelet potential and are sensitised to thrombin and ADP stimulation. The procoagulant platelet potential in these patients is insensitive to aspirin, which targets platelet aggregation, but modified by P2Y12 antagonists.
To examine the effect of CAD on procoagulant platelet potential, non-heparinized bloods from patients with exposure to either aspirin only or no antiplatelet medications within 7 days of the procedure were assayed. […] There were no statistically significant differences between the groups in the absence of agonist stimulation.

[2] = tested on: washed platelets from healthy volunteers; experiment: Aspirin study: GSAO+/P-selectin+ necrotic platelets ex vivo (flow cytometry); format: cell-based, human; details: 100 mg aspirin daily for 7 days; thrombin and collagen
Protocol: (§1) FIG. 8. Aspirin ingestion sensitizes platelets to cyclophilin D inhibition in human subjects. Platelets from healthy volunteers were examined before and after 7 days of aspirin ingestion. Washed platelets were activated with thrombin (0.1 units/mL) and collagen (5 μg/mL) and GSAO+/P-selectin+ necrotic platelets measured by flow cytometry (part A) and procoagulant potential assessed using the Calibrated Automated Thrombogram (part B).
The standard pharmacological means for prevention of cardiovascular events is by inhibiting platelet cyclooxygenase-1 with aspirin, which suppresses platelet activation.
This study was approved by the University of New South Wales Human Research Ethics Advisory Committee (HC132219), conducted according to the Declaration of Helsinki and all volunteers gave written informed consent. Five healthy volunteers aged 25-45 years were recruited. Prior to starting the study, all volunteers abstained from aspirin or non-steroidal anti-inflammatory drugs (NSAIDS), or other anti-platelet therapies for 14 days. Volunteers received 100 mg enteric coated aspirin daily for 7 days. Blood was collected and washed platelets assessed at baseline, day 0, and again at day 7 of treatment.

[3] = tested on: agonist stimulated platelets; experiment: Platelet procoagulant potential, Calibrated Automated Thrombogram; format: cell-based, human; details: 100 mg aspirin daily for 7 days; thrombin and collagen
Protocol: FIG. 5. […] A. Washed human platelets were untreated or stimulated with thrombin (0.1 units/mL) and collagen (5 μg/mL) or the mitochondrial membrane disrupter CCCP (4 μM). Mitochondrial transmembrane potential was measured using the cationic dye, JC-1. The ratio of distribution of JC-1 between the mitochondria (red fluorescence) and cytosol (green fluorescence) reflects mitochondrial transmembrane potential. […] B-C. […] E. Washed human platelets were preincubated with CaCl2 for 15 min and then untreated or stimulated with thrombin (0.1 units/mL) and collagen (5 μg/mL).
as §1, with “Aspirin ingestion sensitizes platelets to cyclophilin D inhibition in human subjects.” left out
Thrombin generation capacity of agonist stimulated platelets was measured using the Calibrated Automated Thrombogram as described (Hemker et al., 2003) using the Fluorskan Ascent (Thermo Scientific). Agonist stimulated platelets were washed in phosphate-buffered saline and resuspended into the donor's own platelet poor plasma at 5×10^4/μL and recombinant tissue factor ([…], Innovin, Dade Behring) was added. Assays were performed in triplicate.

In the case of `CC(=O)Oc1ccccc1C(=O)O` [aspirin], the “effect on necrotic / procoagulant platelet potential in patients” value [1] is reported as “did not affect; also recorded: insensitive”, the “change in GSAO+/P-selectin+ necrotic potential of activated platelets” value [2] is reported as “no change” and the “change in procoagulant potential of activated platelets” value [3] is reported as “no change”.
